This is an account of results in US8623902B2, “Microbiocides” (Syngenta Crop Protection, LLC, priority 2008, dated 2014).

One data set relates to Pyrenophora teres. Description: Action against Pyrenophora teres (net blotch) on barley. It counts as in vivo. As to conditions: foliar, 96 h, barley leaf segments sprayed with 0.02% active ingredient, assessed 4 days after inoculation, read-out: preventive fungicidal activity (inhibition). The procedure: Action Against Pyrenophora teres (Net Blotch) on Barley Barley leaf segments are placed on agar in multiwell plates (24-well format) and sprayed with test solutions (0.02% active ingredient). After drying, the leaf disks are inoculated with a spore suspension of the fungus. After appropriate incubation the activity of a compound is assessed 4 days after inoculation as preventive fungicidal activity.

The next data set has as its system Septoria tritici. Description: Action against Septoria tritici - fungal growth assay. Type of data set: cell-based. As to conditions: Zymoseptoria tritici; 0.002% active ingredient, PDB broth, 24° C., photometric after 72 hrs. The procedure: (§1) Action Against Septoria tritici—Fungal Growth Assay Conidia of the fungus from cryogenic storage are directly mixed into nutrient broth (PDB potato dextrose broth). After placing a (DMSO) solution of the test compounds (0.002% active ingredient) into a microtiter plate (96-well format) the nutrient broth containing the fungal spores is added. The test plates are incubated at 24° C. and the inhibition of growth is determined photometrically after 72 hrs. The activity of a compound is expressed as fungal growth inhibition (0=no growth inhibition, ratings of 80% to 99% mean good to very good inhibition, 100%=complete inhibition).

In data set [1] the test system is Mycosphaerella arachidis (early leaf spot of groundnut; Cercospora arachidicola [anamorph]). Description: Action against Mycosphaerella arachidis - fungal growth assay. Type of data set: cell-based. As to conditions: 0.002% active ingredient, PDB broth, 24° C., photometric after 6-7 days. The procedure: as §1, with “Mycosphaerella arachidis (Early Leaf Spot of Groundnut; Cercospora arachidicola [anamorph])—Fungal” for “Septoria tritici—Fungal”, “measured” for “determined”, “6-7 days.” for “72 hrs.”

The subject of data set [2] is Leptosphaeria nodorum (Septoria nodorum). Description: Action against Leptosphaeria nodorum (Septoria nodorum; glume blotch) on wheat. It counts as in vivo. As to conditions: Parastagonospora nodorum, foliar, 96 h; wheat leaf segments sprayed with 0.02% active ingredient, assessed 4 days after inoculation; read-out: preventive fungicidal activity (inhibition). The procedure:
Action Against Leptosphaeria nodorum (Septoria nodorum; Glume Blotch) on Wheat Wheat leaf segments are placed on agar in multiwell plates (24-well format) and sprayed with test solutions (0.02% active ingredient). After drying, the leaf disks are inoculated with a spore suspension of the fungus. After appropriate incubation the activity of a compound is assessed 4 days after inoculation as preventive fungicidal activity.

For data set [3], the system named is Erysiphe graminis f.sp. tritici. In words: Action against Erysiphe graminis f.sp. tritici (wheat powdery mildew), wheat leaf segments. It counts as in vivo. As to conditions: Blumeria graminis, foliar, 168 h; wheat leaf segments sprayed with 0.02% active ingredient, assessed 7 days after inoculation; read-out: preventive fungicidal activity (inhibition). The procedure:
Action Against Erysiphe graminis f.sp. tritici (Wheat Powdery Mildew) Wheat leaf segments are placed on agar in multiwell plates (24-well format) and sprayed with test solutions (0.02% active ingredient). After drying, the leaf disks are inoculated with a spore suspension of the fungus. After appropriate incubation the activity of a compound is assessed 7 days after inoculation as preventive fungicidal activity.

For data set [4], the system named is Monographella nivalis (anamorph: Fusarium nivale, Microdochium nivale; snow mould). In words: Action against Monographella nivalis - fungal growth assay. It counts as cell-based. As to conditions: 0.002% active ingredient, PDB broth, 24° C., photometric after 72 hrs. The procedure:
as §1, with “Monographella nivalis (Anamorph: Fusarium nivale, Microdochium nivale; Snow Mould)—Fungal” for “Septoria tritici—Fungal”, “DMSO-solution” for “(DMSO) solution”, “measured” for “determined”, “hrs” for “hrs. The activity of a compound is expressed as fungal growth inhibition”

Data set [5] relates to Puccinia recondita. Description: Protective action against Puccinia recondita (brown rust) on wheat. Type of data set: in vivo. As to conditions: foliar, 192 h, wheat leaf segments sprayed with 0.02% active ingredient, assessed 8 days after inoculation, read-out: preventive fungicidal activity (inhibition). The procedure:
Protective Action Against Puccinia recondita (Brown Rust) on Wheat Wheat leaf segments are placed on agar in multiwell plates (24-well format) and sprayed with test solutions (0.02% active ingredient). After drying, the leaf disks are inoculated with a spore suspension of the fungus. After appropriate incubation the activity of a compound is assessed 8 days after inoculation as preventive fungicidal activity.

Data set [6] has as its system Puccinia recondita. Description: Curative action against Puccinia recondita (brown rust) on wheat. Type of data set: in vivo. As to conditions: foliar, wheat leaf segments sprayed with 0.02% active ingredient one day after inoculation, assessed 8 days after inoculation, read-out: curative fungicidal activity (inhibition). The procedure:
Curative Action Against Puccinia recondita (Brown Rust) on Wheat Wheat leaf segments are placed on agar in multiwell plates (24-well format) and inoculated with a spore suspension of the fungus. One day after inoculation the leaf segments are sprayed with test solutions (0.02% active ingredient). After appropriate incubation the activity of a compound is assessed 8 days after inoculation as curative fungicidal activity.

In the next data set the test system is Rhizoctonia solani. Description: Action against Rhizoctonia solani - fungal growth assay. Type of data set: cell-based. As to conditions: 0.002% active ingredient, PDB broth, 24° C., photometric after 3-4 days. The procedure:
as §1, with “Rhizoctonia solani—Fungal” for “Septoria tritici—Fungal”, “Mycelial fragments of a newly grown liquid culture” for “Conidia”, “fungus” for “fungus from cryogenic storage”, “measured” for “determined”, “3-4 days.” for “72 hrs.”

The next data set concerns Botrytis cinerea. Description: Action against Botrytis cinerea - fungal growth assay. It counts as cell-based. As to conditions: 0.002% active ingredient, PDB broth, 24° C., photometric after 3-4 days. The procedure:
as §1, with “Botrytis cinerea—Fungal” for “Septoria tritici—Fungal”, “measured” for “determined”, “3-4 days.” for “72 hrs.”

Bounds are passed on as bounds.

In general, inhibition refers to the change of the read-out against control, counted positive when it falls. Take `Cn1cc(C(=O)N2CCC[C@H]2COc2c(Cl)cc(Cl)cc2Cl)c(C(F)F)n1` [Compound 1.006]: the inhibition at 0.02 % strength in the data set on Pyrenophora teres is not below 80%; in data set [2] it was not below 50%; in data set [3], not below 80%; in the data set on Puccinia recondita [5], not below 80%; in the data set with Puccinia recondita [6], not below 80%. The inhibition at 0.002 % strength in the data set on Septoria tritici was not below 80%; in data set [1], not below 80%; in data set [4] it was not below 50%; with Rhizoctonia solani it was not below 50%; in the data set with Botrytis cinerea, not below 80%.
As to `CO/N=C/c1cc(Cl)c(OC[C@@H]2CCCN2C(=O)c2cn(C)nc2C(F)F)c(Cl)c1` [Compound 1.021, 3,5-dichloro-4-[(S)-1-(3-difluoromethyl-1-methyl-1H-pyrazole-4-carbonyl)-pyrrolidin-2-ylmethoxy]-benzaldehyde O-methyl-oxime], the inhibition at 0.02 % strength in the data set on Pyrenophora teres and in the data set with Puccinia recondita [5] was not below 80% in each case. Further, the inhibition at 0.002 % strength with Septoria tritici is not below 80%; in [1], not below 80%; in the data set with Rhizoctonia solani it was not below 50%; with Botrytis cinerea it was not below 80%.
The melting point is the temperature, or range, at which the solid turns liquid. Compound `Cc1cccc(C)c1OC[C@@H]1CCCN1C(=O)c1cn(C)nc1C(F)F` [Compound 1.068] gave a melting point of 137 to 140 °C. Moreover, the inhibition at 0.02 % strength in the data set with Pyrenophora teres is not below 80%. Further, the inhibition at 0.002 % strength with Septoria tritici was not below 80%. In data set [1], the inhibition at 0.002 % strength was not below 80%. Further, the inhibition at 0.02 % strength in data set [2] is not below 50%. In addition, the inhibition at 0.02 % strength in data set [3] was not below 80%. Further, the inhibition at 0.02 % strength in the data set on Puccinia recondita [5] is not below 80%. The inhibition at 0.02 % strength with Puccinia recondita [6] was not below 80%. The compound further returned an inhibition at 0.002 % strength in the data set with Rhizoctonia solani not below 50%. For the same compound, in the data set with Botrytis cinerea, the inhibition at 0.002 % strength is not below 80%.
`Cn1cc(C(=O)N2CCCC2Cc2c(Cl)cccc2Cl)c(C(F)F)n1` (centres unmarked) [Compound 1.110, [2-(2,6-dichloro-benzyl)-pyrrolidin-1-yl]-(3-difluoromethyl-1-methyl-1H-pyrazol-4-yl)-methanone]: the inhibition at 0.02 % strength was not below 80% in the data set on Pyrenophora teres and not below 50% in data set [3]. Moreover, the inhibition at 0.002 % strength (in the data set with Septoria tritici; in data set [1]) was not below 80% throughout.
As for `Cn1cc(C(=O)N2CCC[C@H]2C(F)c2ccc(Cl)cc2)c(C(F)F)n1` (stereo partly drawn) [Compound 1.215, {(S)-2-[(4-chlorophenyl)-fluoro-methyl]-pyrrolidin-1-yl}-(3-difluoromethyl-1-methyl-1H-pyrazol-4-yl)-methanone], the values for the inhibition at 0.02 % strength (with Pyrenophora teres; in [2]) were not below 80% and not below 50%, respectively. Also, the inhibition at 0.002 % strength (in the data set with Septoria tritici; in data set [1]) was not below 80% in each case.
Take `Cn1cc(C(=O)N2CCC[C@H]2C(=O)c2ccc(Cl)cc2)c(C(F)F)n1` [Compound 1.259, (4-chloro-phenyl)-[(S)-1-(3-difluoromethyl-1-methyl-1H-pyrazole-4-carbonyl)-pyrrolidin-2-yl]-methanone]: in the data set on Pyrenophora teres, the inhibition at 0.02 % strength was not below 50%.
